Assay results: US10233173B2, “Substituted 1,2,3-triazoles as NR2B-selective NMDA modulators” (JANSSEN PHARMACEUTICA NV, priority 2016, dated 2019)

Molecular target: human GluN1/GluN2B NMDA receptors (Homo sapiens, UniProt Q05586+Q13224)
Assay: Cell-based calcium flux (FLIPR) assay on cloned human NR1/NR2B ion channels expressed in mammalian cells
Settings: standard assay; glutamate at ~EC80; FLIPR calcium flux
How it was run: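 Calcium influx followed by FLIPR fluorescence after 5 min compound exposure and a further 5 min co-agonist challenge: 10 μM glycine with glutamate at ~EC80 (standard) or EC40 (HTS).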

human GluN1/GluN2B NMDA receptors, sequence (Q13224 27-1484, other chains not shown): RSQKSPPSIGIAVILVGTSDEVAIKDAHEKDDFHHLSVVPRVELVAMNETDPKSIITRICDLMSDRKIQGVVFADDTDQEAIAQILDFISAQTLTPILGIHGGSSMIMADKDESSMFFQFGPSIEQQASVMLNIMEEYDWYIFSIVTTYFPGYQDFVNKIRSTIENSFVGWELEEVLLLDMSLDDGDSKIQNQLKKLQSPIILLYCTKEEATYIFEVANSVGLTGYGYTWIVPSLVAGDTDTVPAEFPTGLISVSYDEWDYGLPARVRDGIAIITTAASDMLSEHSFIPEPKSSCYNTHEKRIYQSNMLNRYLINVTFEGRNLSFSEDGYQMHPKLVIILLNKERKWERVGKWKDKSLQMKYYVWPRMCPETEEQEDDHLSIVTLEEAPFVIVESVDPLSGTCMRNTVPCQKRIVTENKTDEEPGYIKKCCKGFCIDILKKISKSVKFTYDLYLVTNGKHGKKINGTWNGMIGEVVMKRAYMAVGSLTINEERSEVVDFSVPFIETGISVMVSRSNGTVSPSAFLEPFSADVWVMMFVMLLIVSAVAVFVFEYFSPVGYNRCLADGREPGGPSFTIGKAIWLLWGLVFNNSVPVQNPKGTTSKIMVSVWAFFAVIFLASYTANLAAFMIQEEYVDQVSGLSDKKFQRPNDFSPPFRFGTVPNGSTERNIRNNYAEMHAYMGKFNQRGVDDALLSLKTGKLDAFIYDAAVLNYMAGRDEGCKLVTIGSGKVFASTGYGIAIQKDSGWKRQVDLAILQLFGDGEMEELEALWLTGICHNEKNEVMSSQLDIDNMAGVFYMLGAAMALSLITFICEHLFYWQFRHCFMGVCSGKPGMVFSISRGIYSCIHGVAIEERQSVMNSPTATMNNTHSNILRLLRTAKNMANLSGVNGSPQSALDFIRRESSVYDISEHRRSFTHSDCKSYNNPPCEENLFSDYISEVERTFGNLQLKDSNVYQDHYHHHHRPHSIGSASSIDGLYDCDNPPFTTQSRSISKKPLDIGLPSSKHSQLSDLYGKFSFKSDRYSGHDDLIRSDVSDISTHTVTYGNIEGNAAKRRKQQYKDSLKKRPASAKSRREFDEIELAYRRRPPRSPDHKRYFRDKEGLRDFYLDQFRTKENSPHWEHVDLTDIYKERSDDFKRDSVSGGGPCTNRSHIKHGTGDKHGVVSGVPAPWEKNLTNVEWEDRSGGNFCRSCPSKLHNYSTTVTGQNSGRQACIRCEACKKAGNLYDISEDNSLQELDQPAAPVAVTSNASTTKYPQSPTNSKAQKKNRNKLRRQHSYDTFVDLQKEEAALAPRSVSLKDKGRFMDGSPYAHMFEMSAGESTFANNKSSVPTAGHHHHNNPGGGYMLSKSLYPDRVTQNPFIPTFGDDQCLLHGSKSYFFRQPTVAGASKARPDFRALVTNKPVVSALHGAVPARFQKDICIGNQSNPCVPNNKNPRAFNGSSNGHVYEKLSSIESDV

| SMILES | IC50 |
| --- | --- |
| CC(C)(O)c1cnc(OCc2cn(-c3ccc(F)c(C(C)(F)F)c3)nn2)nc1 [Example 566, 2-[2-[[1-[3-(1,1-Difluoroethyl)-4-fluoro-phenyl]triazol-4-yl]methoxy]pyrimidin-5-yl]propan-2-ol] | 0.008 µM |
| COC(C)(C)c1cnc(OCc2cn(-c3ccc(F)c(C(C)(F)F)c3)nn2)nc1 [Example 567, 2-[[1-[3-(1,1-Difluoroethyl)-4-fluoro-phenyl]triazol-4-yl]methoxy]-5-(1-methoxy-1-methyl-ethyl)pyrimidine] | 4.63 µM |
| CC(F)(F)c1cc(-n2cc(COc3nccc(CO)n3)nn2)ccc1F [Example 568, [2-[[1-[3-(1,1-Difluoroethyl)-4-fluoro-phenyl]triazol-4-yl]methoxy]pyrimidin-4-yl]methanol] | 0.025 µM |
| COCc1cnc(OCc2cn(-c3ccc(F)c(C(C)(F)F)c3)nn2)nc1 [Example 569, 2-[[1-[3-(1,1-Difluoroethyl)-4-fluoro-phenyl]triazol-4-yl]methoxy]-5-(methoxymethyl)pyrimidine] | 0.089 µM |
| COCc1ccnc(OCc2cn(-c3ccc(F)c(C(C)(F)F)c3)nn2)n1 [Example 570, 2-[[1-[3-(1,1-Difluoroethyl)-4-fluoro-phenyl]triazol-4-yl]methoxy]-4-(methoxymethyl)pyrimidine] | 0.011 µM |
| CC(F)(F)c1cc(-n2cc(COc3ncc(CO)cn3)nn2)ccc1F [Example 571, [2-[[1-[3-(1,1-difluoroethyl)-4-fluoro-phenyl]triazol-4-yl]methoxy]pyrimidin-5-yl]methanol] | 0.021 µM |
| CC(F)(F)c1cc(-n2cc(COc3ncc(OC(F)F)cn3)nn2)ccc1F [Example 572, 2-[[1-[3-(1,1-Difluoroethyl)-4-fluoro-phenyl]triazol-4-yl]methoxy]-5-(difluoromethoxy)pyrimidine] | 0.025 µM |
| Cc1cnc(OCc2cn(-c3ccc(F)c(C(C)(F)F)c3)nn2)nc1C [Example 573, 2-[[1-[3-(1,1-Difluoroethyl)-4-fluoro-phenyl]triazol-4-yl]methoxy]-4,5-dimethyl-pyrimidine] | 0.019 µM |
| Cc1nc(OCc2cn(-c3ccc(F)c(C(C)(F)F)c3)nn2)ncc1Cl [Example 574, 5-Chloro-2-[[1-[3-(1,1-difluoroethyl)-4-fluoro-phenyl]triazol-4-yl]methoxy]-4-methyl-pyrimidine] | 0.01 µM |
| Cc1nc(OCc2cn(-c3ccc(F)c(C(C)(F)F)c3)nn2)ncc1F [Example 575, 2-[[1-[3-(1,1-Difluoroethyl)-4-fluoro-phenyl]triazol-4-yl]methoxy]-5-fluoro-4-methyl-pyrimidine] | 0.006 µM |
| Cc1cnc(OCc2cn(-c3ccc(F)c(C(C)(F)F)c3)nn2)nc1N [Example 576, 2-[[1-[3-(1,1-Difluoroethyl)-4-fluoro-phenyl]triazol-4-yl]methoxy]-5-methyl-pyrimidin-4-amine] | 0.017 µM |
| CNc1nc(OCc2cn(-c3ccc(F)c(C(C)(F)F)c3)nn2)ncc1C [Example 577, 2-[[1-[3-(1,1-Difluoroethyl)-4-fluoro-phenyl]triazol-4-yl]methoxy]-N,5-dimethyl-pyrimidin-4-amine] | 0.128 µM |
| CNc1nc(OCc2cn(-c3ccc(F)c(C(C)(F)F)c3)nn2)ncc1F [Example 578, 2-[[1-[3-(1,1-Difluoroethyl)-4-fluoro-phenyl]triazol-4-yl]methoxy]-5-fluoro-N-methyl-pyrimidin-4-amine] | 0.14 µM |
| Cc1cnc(OCc2cn(-c3ccc(F)c(C(C)(F)F)c3)nn2)nc1N(C)C [Example 579, 2-[[1-[3-(1,1-Difluoroethyl)-4-fluoro-phenyl]triazol-4-yl]methoxy]-N,N,5-trimethyl-pyrimidin-4-amine] | 0.087 µM |
| CC(F)(F)c1cc(-n2cc(COc3nccc(N)n3)nn2)ccc1F [Example 580, 2-[[1-[3-(1,1-Difluoroethyl)-4-fluoro-phenyl]triazol-4-yl]methoxy]pyrimidin-4-amine] | 0.088 µM |
| CNc1ccnc(OCc2cn(-c3ccc(F)c(C(C)(F)F)c3)nn2)n1 [Example 581, 2-[[1-[3-(1,1-Difluoroethyl)-4-fluoro-phenyl]triazol-4-yl]methoxy]-N-methyl-pyrimidin-4-amine] | 0.033 µM |
| CN(C)c1ccnc(OCc2cn(-c3ccc(F)c(C(C)(F)F)c3)nn2)n1 [Example 582, 2-[[1-[3-(1,1-Difluoroethyl)-4-fluoro-phenyl]triazol-4-yl]methoxy]-N,N-dimethyl-pyrimidin-4-amine] | 0.028 µM |
| CC(F)(F)c1cc(-n2cc(COc3ncc(C#N)cn3)nn2)ccc1F [Example 583, 2-[[1-[3-(1,1-Difluoroethyl)-4-fluoro-phenyl]triazol-4-yl]methoxy]pyrimidine-5-carbonitrile] | 0.067 µM |
| CC(F)(F)c1cc(-n2cc(COc3ncc(S(C)(=O)=O)cn3)nn2)ccc1F [Example 584, 2-[[1-[3-(1,1-Difluoroethyl)-4-fluoro-phenyl]triazol-4-yl]methoxy]-5-methylsulfonyl-pyrimidine] | 0.199 µM |
| CC(=O)c1cnc(OCc2cn(-c3ccc(F)c(C(C)(F)F)c3)nn2)nc1 [Example 585, 1-[2-[[1-[3-(1,1-Difluoroethyl)-4-fluoro-phenyl]triazol-4-yl]methoxy]pyrimidin-5-yl]ethanone] | 0.011 µM |
| CC(F)(F)c1cc(-n2cc(COc3ncc(C4CC4)cn3)nn2)ccc1F [Example 587, 5-Cyclopropyl-2-[[1-[3-(1,1-difluoroethyl)-4-fluoro-phenyl]triazol-4-yl]methoxy]pyrimidine] | 0.041 µM |
| CC(F)(F)c1cc(-n2cc(COc3ncc(N4CCC4)cn3)nn2)ccc1F [Example 588, 5-(Azetidin-1-yl)-2-[[1-[3-(1,1-difluoroethyl)-4-fluoro-phenyl]triazol-4-yl]methoxy]pyrimidine] | 0.034 µM |
| CC(F)(F)c1cc(-n2cc(COc3ncc(N4CC(F)C4)cn3)nn2)ccc1F [Example 589, 2-((1-(3-(1,1-Difluoroethyl)-4-fluorophenyl)-1H-1,2,3-triazol-4-yl)methoxy)-5-(3-fluoroazetidin-1-yl)pyrimidine] | 0.013 µM |
| CN(C)c1cnc(OCc2cn(-c3ccc(F)c(C(C)(F)F)c3)nn2)nc1 [Example 590, 2-((1-(3-(1,1-Difluoroethyl)-4-fluorophenyl)-1H-1,2,3-triazol-4-yl)methoxy)-N,N-dimethylpyrimidin-5-amine] | 0.039 µM |
| CC(F)(F)c1cc(-n2cc(COc3nccc(N4CCCC4)n3)nn2)ccc1F [Example 591, 2-[[1-[3-(1,1-Difluoroethyl)-4-fluoro-phenyl]triazol-4-yl]methoxy]-4-pyrrolidin-1-yl-pyrimidine] | 0.016 µM |
| CC(F)(F)c1cc(-n2cc(COc3nccc(N4CCCCC4)n3)nn2)ccc1F [Example 592, 2-[[1-[3-(1,1-Difluoroethyl)-4-fluoro-phenyl]triazol-4-yl]methoxy]-4-(1-piperidyl)pyrimidine] | 0.271 µM |
| CCc1cnc(OCc2nnn(-c3ccc(F)c(C(C)(F)F)c3)c2C)nc1 [Example 593, 2-[[1-[3-(1,1-Difluoroethyl)-4-fluoro-phenyl]-5-methyl-triazol-4-yl]methoxy]-5-ethyl-pyrimidine] | 0.486 µM |
| Cc1c(COc2ncc(C3CC3)cn2)nnn1-c1ccc(F)c(C(C)(F)F)c1 [Example 594, 5-Cyclopropyl-2-[[1-[3-(1,1-difluoroethyl)-4-fluoro-phenyl]-5-methyl-triazol-4-yl]methoxy]pyrimidine] | 0.171 µM |
